Laboratory results: publication PMC5106290 (Bioorganic & medicinal chemistry, 2014)
Like-named read-outs stand apart in the source and are kept apart here.

Assays:
L. i. chagasi = type: in vivo, Leishmania infantum chagasi; settings: infected BALB/c mice
[1] = tested on: promastigote of Leishmania amazonensis; settings: ref Medeiros et al. 21; cited from earlier work
RAW 264.7 cells = type: cell-based, murine; settings: Table 1 and text, 48 h, MTT
[2] = 100 mg/kg IP once a day for 30 days
[3] = Glucantime 80 mg/Kg intra muscular once a day for 30 days

## C=CCc1ccc(OC(C)=O)c(OC)c1 [Acetyl-Eugenol, O-acetyl-eugenol]
L. i. chagasi; [2]
  Presence of amastigotes in spleen (immunohistochemistry, qualitative): could not be visualized

## Cc1ccc(C(C)C)c(O)c1 [Thymol]
[1]
  EC50 against promastigote of Leishmania amazonensis: 19.4 µg/mL

## C=CCc1ccc(OC(=O)c2ccccc2)c(OC)c1 [Benzoyl-Eugenol, O-benzoyl-eugenol]
L. i. chagasi; [2]
  Presence of amastigotes in spleen (immunohistochemistry, qualitative): could not be visualized

## CC(=O)Oc1cc(C)ccc1C(C)C [Acetyl-Thymol, O-acetyl-thymol]
L. i. chagasi; [2]
  Amount of amastigotes seen in spleen stain: regular amount of parasites
RAW 264.7 cells
  Toxicity % RAW 264.7 cells survival at 100 μg/mL (±SD): not toxic

## Cc1ccc(C(C)C)c(OC(=O)c2ccccc2)c1 [Benzoyl-Thymol, O-benzoyl-thymol]
L. i. chagasi; [2]
  Presence of amastigotes in spleen (immunohistochemistry, qualitative): could not be visualized

## antimoniate N-methyl glucamine [Glucantime, reference compound]
L. i. chagasi; [3]
  Amount of amastigotes seen in spleen stain: only a few amastigotes
  Presence of amastigotes in spleen (immunohistochemistry, qualitative): visible
